Results reported in ChEMBL document CHEMBL1201862, “PubChem BioAssay data set” (2004).
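Five compound concentrations were applied to cells in 96-well plates for 48 hours; endpoints were derived by simple linear interpolation of the resulting dose-response curve. GI50 marks 50% less growth.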 Activity calls are given as the source filed them. No stated cut-off is given here; in the data, active = GI50 up to about 1.1 µM and inactive = higher.

Assays:
Experiment in all cases: NCI-60 cell line screen, 48 h
786-0 = system: 786-0
A498 = system: A498
A549 = system: A549
ACHN = system: ACHN
CAKI-1 = system: CAKI-1
CCRF-CEM = system: CCRF-CEM
COLO 205 = system: COLO 205
DLD-1 = system: DLD-1
DMS-114 = system: DMS-114
DMS-273 = system: DMS-273
HCT-116 = system: HCT-116
HL-60 = system: HL-60
HOP-18 = system: HOP-18
HOP-92 = system: HOP-92
HT-29 = system: HT-29
IGROV-1 = system: IGROV-1
K562 = system: K562
KM-20L2 = system: KM-20L2
KM12 = system: KM12
LOX IMVI = system: LOX IMVI
LXFL 529 = system: LXFL 529
M14 = system: M14
M19-MEL = system: M19-MEL
MOLT-4 = system: MOLT-4
Malme-3M = system: Malme-3M
NCI-H226 = system: NCI-H226
NCI-H23 = system: NCI-H23
NCI-H460 = system: NCI-H460
NCI-H522 = system: NCI-H522
OVCAR-3 = system: OVCAR-3
OVCAR-4 = system: OVCAR-4
OVCAR-5 = system: OVCAR-5
OVCAR-8 = system: OVCAR-8
RPMI-8226 = system: RPMI-8226
RXF 393 = system: RXF 393
RXF 631 = system: RXF 631
SF-268 = system: SF-268
SF-295 = system: SF-295
SF-539 = system: SF-539
SK-MEL-28 = system: SK-MEL-28
SK-MEL-2 = system: SK-MEL-2
SK-MEL-5 = system: SK-MEL-5
SK-OV-3 = system: SK-OV-3
SN12C = system: SN12C
SNB-19 = system: SNB-19
SNB-75 = system: SNB-75
SNB-78 = system: SNB-78
SR = system: SR
SW-620 = system: SW-620
TK-10 = system: TK-10
U-251 = system: U-251
UACC-257 = system: UACC-257
UACC-62 = system: UACC-62
UO-31 = system: UO-31
XF498 = system: XF498
EKVX = system: EKVX
HCC 2998 = system: HCC 2998
HCT-15 = system: HCT-15
HOP-62 = system: HOP-62

COc1ccc([Se]c2ccc(OC)cc2OC)c(OC)c1
GI50 (786-0): 40.5 µM (inactive)
GI50 (A498): 18.7 µM (inactive)
GI50 (A549): 10.8 µM (inactive)
GI50 (ACHN): 45.3 µM (inactive)
GI50 (CAKI-1): 19.5 µM (inactive)
GI50 (CCRF-CEM): 20.2 µM (inactive)
GI50 (COLO 205): 11.4 µM (inactive)
GI50 (DLD-1): 17.4 µM (inactive)
GI50 (DMS-114): 3.44 µM (inactive)
GI50 (DMS-273): 3.85 µM (inactive)
GI50 (HCT-116): 12.1 µM (inactive)
GI50 (HL-60): 5.38 µM (inactive)
GI50 (HOP-18): 20.2 µM (inactive)
GI50 (HOP-92): 2.2 µM (inactive)
GI50 (HT-29): 4.58 µM (inactive)
GI50 (IGROV-1): 5.37 µM (inactive)
GI50 (K562): 10.5 µM (inactive)
GI50 (KM-20L2): 8.38 µM (inactive)
GI50 (KM12): 17.4 µM (inactive)
GI50 (LOX IMVI): 24.6 µM (inactive)
GI50 (LXFL 529): 30.1 µM (inactive)
GI50 (M14): 18.4 µM (inactive)
GI50 (M19-MEL): 9.46 µM (inactive)
GI50 (MOLT-4): 5.36 µM (inactive)
GI50 (Malme-3M): 14.9 µM (inactive)
GI50 (NCI-H226): 20 µM (inactive)
GI50 (NCI-H23): 29.9 µM (inactive)
GI50 (NCI-H460): 19.6 µM (inactive)
GI50 (NCI-H522): 13 µM (inactive)
GI50 (OVCAR-3): 32 µM (inactive)
GI50 (OVCAR-4): 21.9 µM (inactive)
GI50 (OVCAR-5): > 100 µM (inactive)
GI50 (OVCAR-8): 33.6 µM (inactive)
GI50 (RPMI-8226): 20.7 µM (inactive)
GI50 (RXF 393): 18.2 µM (inactive)
GI50 (RXF 631): 22.1 µM (inactive)
GI50 (SF-268): 35.6 µM (inactive)
GI50 (SF-295): 8.57 µM (inactive)
GI50 (SF-539): 22.6 µM (inactive)
GI50 (SK-MEL-28): 15.8 µM (inactive)
GI50 (SK-MEL-2): 17.5 µM (inactive)
GI50 (SK-MEL-5): 22.2 µM (inactive)
GI50 (SK-OV-3): 34.3 µM (inactive)
GI50 (SN12C): 36.4 µM (inactive)
GI50 (SNB-19): 86.7 µM (inactive)
GI50 (SNB-75): 9.02 µM (inactive)
GI50 (SNB-78): 22.6 µM (inactive)
GI50 (SR): 6.22 µM (inactive)
GI50 (SW-620): 4.66 µM (inactive)
GI50 (TK-10): 28.4 µM (inactive)
GI50 (U-251): 21.6 µM (inactive)
GI50 (UACC-257): 61.2 µM (inactive)
GI50 (UACC-62): 11.1 µM (inactive)
GI50 (UO-31): 18 µM (inactive)
GI50 (XF498): 24.9 µM (inactive)

O=C(/C=C/c1ccc(Cl)c(Cl)c1)c1ccccc1Cl
GI50 (786-0): 5.32 µM (inactive)
GI50 (A498): 17 µM (inactive)
GI50 (A549): 15.8 µM (inactive)
GI50 (ACHN): 15.3 µM (inactive)
GI50 (CAKI-1): 9.89 µM (inactive)
GI50 (CCRF-CEM): 6.67 µM (inactive)
GI50 (COLO 205): 16.1 µM (inactive)
GI50 (DLD-1): 5.12 µM (inactive)
GI50 (DMS-114): 5.3 µM (inactive)
GI50 (DMS-273): 6.47 µM (inactive)
GI50 (EKVX): 17.3 µM (inactive)
GI50 (HCC 2998): 10.5 µM (inactive)
GI50 (HCT-116): 4.71 µM (inactive)
GI50 (HCT-15): 5.45 µM
GI50 (HL-60): 6.61 µM (inactive)
GI50 (HOP-18): 12.7 µM (inactive)
GI50 (HOP-62): 18.7 µM (inactive)
GI50 (HOP-92): 16.7 µM (inactive)
GI50 (HT-29): 6.07 µM (inactive)
GI50 (IGROV-1): 9.84 µM (inactive)
GI50 (K562): 7.16 µM (inactive)
GI50 (KM-20L2): 9.91 µM (inactive)
GI50 (KM12): 8.13 µM (inactive)
GI50 (LOX IMVI): 13.2 µM (inactive)
GI50 (LXFL 529): 7.41 µM (inactive)
GI50 (M14): 6.24 µM (inactive)
GI50 (M19-MEL): 7.18 µM (inactive)
GI50 (MOLT-4): 27.7 µM (inactive)
GI50 (Malme-3M): 16.6 µM (inactive)
GI50 (NCI-H226): 16.6 µM (inactive)
GI50 (NCI-H23): 13.4 µM (inactive)
GI50 (NCI-H460): 11.6 µM (inactive)
GI50 (NCI-H522): 11.8 µM (inactive)
GI50 (OVCAR-3): 9.27 µM (inactive)
GI50 (OVCAR-4): 14.1 µM (inactive)
GI50 (OVCAR-5): 16.8 µM (inactive)
GI50 (OVCAR-8): 6 µM (inactive)
GI50 (RPMI-8226): 8.49 µM (inactive)
GI50 (RXF 393): 17.2 µM (inactive)
GI50 (RXF 631): 15.9 µM (inactive)
GI50 (SF-268): 6.64 µM (inactive)
GI50 (SF-295): 13.7 µM (inactive)
GI50 (SF-539): 3.63 µM (inactive)
GI50 (SK-MEL-28): 8.95 µM (inactive)
GI50 (SK-MEL-5): 13.7 µM (inactive)
GI50 (SK-OV-3): 24.4 µM (inactive)
GI50 (SN12C): 16.6 µM (inactive)
GI50 (SNB-19): 10.3 µM (inactive)
GI50 (SNB-75): 9.14 µM (inactive)
GI50 (SNB-78): 15.5 µM (inactive)
GI50 (SR): 4.42 µM (inactive)
GI50 (SW-620): 4.91 µM (inactive)
GI50 (TK-10): 21.6 µM (inactive)
GI50 (U-251): 5.64 µM (inactive)
GI50 (UACC-257): 14.3 µM (inactive)
GI50 (UACC-62): 12.8 µM (inactive)
GI50 (UO-31): 14.5 µM (inactive)
GI50 (XF498): 19.2 µM (inactive)
